The text below walks through data of patent US10301690B2, “Streptomyces filamentosus variant and method for producing daptomycin using same” (priority 2013, dated 2019).

The subject of this experiment is Staphylococcus aureus. Put plainly: Agar-well method: growth inhibition of the indicator strain. The experiment is classed as cell-based. The settings on record: 130 μl in agar well, read-out: Radius of inhibition zone. How it is done: A parent strain, streptomyces filamentosus ATCC 31568 was cultured by slant culture at 30° C. for 12 days to collect spores, and then the spores were suspended in a physiological saline, followed by serial dilution of 10^−2, 10^−3, and 10^−4, and plating on plate media. After pre-incubation at 30° C. for 2 hours, the plates were irradiated for 118 seconds in a glove box placed at a distance of 65 cm from two 20 W UV bulbs of 280 nm wavelength. In this regard, the death rate was 99.9%. […] Colonies that survived on the agar plates at 30° C. for 6 days were collected, followed by seed culture and fermentation culture according to a method of the following Example 4. Fermentation was performed using a 500 ml-baffled flask in a shaking incubator under conditions of 30° C., 260 rpm for 7 days.
After completion of the culture, the culture broth was centrifuged. An agar-well method which is a biological detection method was used in order to examine growth inhibition of an indicator strain, Staphylococcus aureus. The agar-well method was applied to the analysis, because this method is an easy and simple method with lower errors, compared to other methods. This method is based on a principle that a diffusion rate is determined by a difference in a concentration gradient upon diffusion of a sample on an agar gel, and the radius of inhibition zone for a predetermined time is known to be proportional to the log of the concentration value. Based on this principle, antibiotic concentrations in unknown samples can be measured. This method was performed by the following procedure: before a trypticase soy broth agar medium solidified, the indicator strain Staphylococcus aureus was added thereto and uniformly suspended therein. The medium was poured into a […] and allowed to solidify. Next, wells were punched into the agar using a stainless steel borer having a diameter of 5 mm, and agar in the well was suctioned by vacuum aspiration. The amount of the sample in the agar well was 130 μl, and a control group daptomycin was prepared and used in an amount of 0, 50, 100, 200, 300, and 1000 μg/ml.

In the case of `CCCCCCCCCC(=O)N[C@@H](Cc1c[nH]c2ccccc12)C(=O)N[C@H](CC(N)=O)C(=O)N[C@@H](CC(=O)O)C(=O)N[C@@H]1C(=O)NCC(=O)N[C@@H](CCCN)C(=O)N[C@@H](CC(=O)O)C(=O)N[C@H](C)C(=O)N[C@@H](CC(=O)O)C(=O)NCC(=O)N[C@H](CO)C(=O)N[C@@H]([C@H](C)CC(=O)O)C(=O)N[C@@H](CC(=O)c2ccccc2N)C(=O)O[C@@H]1C` [Daptomycin, daptomycin], the zone of inhibition (in general, the extent of the growth-free halo in a diffusion test) at 50 µg/mL (Daptomycin control 0.05 mg/ml) stood at 8.6 mm. The zone of inhibition at 100 µg/mL (Daptomycin control 0.10 mg/ml) came out at 10.6 mm. Also, for the setting “Daptomycin control 0.20 mg/ml”, the zone of inhibition at 200 µg/mL amounted to 12 mm. Besides, the zone of inhibition at 300 µg/mL (Daptomycin control 0.30 mg/ml) amounted to 13.2 mm. The zone of inhibition at 1000 µg/mL (Daptomycin control 1.00 mg/ml) worked out at 16 mm.
